Measurements as given in US8193191B2, “Urotensin II receptor antagonists” (Janssen Pharmaceutica N.V., priority 2006, dated 2012).
Read-outs that look alike come from different tables or passages of the source.

Target: T1, rat GPR14 (U-II receptor) (Rattus norvegicus, UniProt P49684)
T1 construct: expressed in transfected cells
T1 sequence (P49684 1-386): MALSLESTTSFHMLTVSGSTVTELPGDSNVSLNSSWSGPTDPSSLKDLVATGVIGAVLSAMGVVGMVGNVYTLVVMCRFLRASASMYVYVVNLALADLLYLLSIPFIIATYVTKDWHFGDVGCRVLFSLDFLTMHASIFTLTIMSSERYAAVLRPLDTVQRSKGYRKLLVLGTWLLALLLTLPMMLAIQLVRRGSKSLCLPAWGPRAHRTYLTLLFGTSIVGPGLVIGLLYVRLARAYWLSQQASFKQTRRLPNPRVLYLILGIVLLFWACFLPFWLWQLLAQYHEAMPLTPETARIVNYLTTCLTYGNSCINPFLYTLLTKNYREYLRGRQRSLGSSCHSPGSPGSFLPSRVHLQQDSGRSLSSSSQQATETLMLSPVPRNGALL
Experiment: Rat UII Calcium Mobilization FLIPR Assay
Format: cell-based
Details: for inhibition at 10 µM / inhibition at 50 µM: CHO, 5 min, agonist-induced Ca2+ mobilization (FLIPR), CHO cells with rat UII receptor; for inhibition at 10 µM: 10 μM compound, read-out: % I @ 10; for inhibition at 50 µM: 50 μM compound, read-out: % I @ 50
Excerpt: To derive these cells, the complete coding sequence of rat U-II (Genbank Accession No. U32673) was amplified by nested PCR from rat heart marathon-Ready cDNA. […] The PCR products were cloned into pcDNA3 (Invitrogen) digested with EcoR I and Xba I. Clones containing rat U-II receptor were verified by complete sequencing of the U-II receptor insert to ensure a lack of PCR-introduced errors. The constructed vector was transfected into CHO cells by using lipofectamine (GIBCO BRL). CHO cells with high expression of rat U-II receptor were selected and established as stable cell lines by using G418. CHO cells were seeded at 25,000 cells per well into 96-well, black-wall, clear-bottom microtiter plates 24 h before assay. Cells in culture media (DMEM/F12 containing 15 mM HEPES, L-glutamine, pyridoxine hydrochloride; 10% fetal bovine serum; 1 mg/mL G418 sulfate; antibiotic-antimycotic; pH 7.4) were loaded with proprietary dye, from the FLIPR Calcium Assay Kit (Molecular Devices), prepared in assay buffer (Hanks Balanced Salts Solution, 20 mM HEPES, 0.1% BSA, 2.5 mM probenecid, pH 7.4), and incubated for 1 h at 37° C. Calcium mobilization determinations were performed at room temperature (23° C.).

[1] = Inhibition of Acetyl-cyclic[Cys-Phe-Trp-Lys-(2-Nal)-Cys]-NH2 induced Ca2+ mobilization (FLIPR) in CHO cells transfected with rat UII receptor, read-out: IC50
[2] = average value for the compound tested, read-out: Rat UII FLIPR Average IC50

With `COc1ccc(CN2C(=O)c3cccc(N4C[C@@H](C)N(Cc5ccccc5)[C@@H](C)C4)c3C2=O)cc1OC` [Cpd 42, (3R,5S)-4-(4-benzyl-3,5-dimethyl-piperazin-1-yl)-2-(3,4-dimethoxy-benzyl)-isoindole-1,3-dione] the inhibition at 10 µM was 55%, the inhibition at 50 µM was 78% and the IC50 [1] was 10 µM.

Compound `O=C1c2cccc(N3CCN(Cc4ccccc4)CC3)c2C(=O)N1CCc1ccncc1` [Cpd 43, 4-(4-benzyl-piperazin-1-yl)-2-(2-pyridin-4-yl-ethyl)-isoindole-1,3-dione] has an inhibition at 10 µM of 50%, an inhibition at 50 µM of 97% and an IC50 [1] of 10 µM.

`COc1ccc(CN2C(=O)c3cccc(N4CCN(Cc5cccc(Cl)c5)CC4)c3C2=O)cc1OC` [Cpd 44, 4-[4-(3-chloro-benzyl)-piperazin-1-yl]-2-(3,4-dimethoxy-benzyl)-isoindole-1,3-dione] showed an inhibition at 10 µM of 42%, an inhibition at 50 µM of 79% and an IC50 [1] of 12 µM.

`COc1cc(CN2C(=O)c3cccc(N4CC5CCC(C4)N5Cc4ccccc4)c3C2=O)cc(OC)c1` [Cpd 45, 4-(8-benzyl-3,8-diaza-bicyclo[3.2.1]oct-3-yl)-2-(3,5-dimethoxy-benzyl)-isoindole-1,3-dione] showed an inhibition at 10 µM of 55%, an inhibition at 50 µM of 40% and an IC50 [1] of 13 µM.

`COc1ccc(CN2C(=O)c3cccc(N4CCN(Cc5cc(F)cc(F)c5)CC4)c3C2=O)cc1OC` [Cpd 46, 4-[4-(3,5-difluoro-benzyl)-piperazin-1-yl]-2-(3,4-dimethoxy-benzyl)-isoindole-1,3-dione] was tested, and the inhibition at 10 µM was 48%, the inhibition at 50 µM was 54% and the IC50 [1] was 14 µM.

Work on `O=C1c2cccc(N3CCN(Cc4ccccc4)CC3)c2C(=O)N1CCCn1ccnc1` [Cpd 47, 4-(4-benzyl-piperazin-1-yl)-2-(3-imidazol-1-yl-propyl)-isoindole-1,3-dione] yielded an inhibition at 10 µM of 25%, an inhibition at 50 µM of 78% and an IC50 [1] of 15 µM.

Work on `COc1ccc(CN2C(=O)c3cccc(NCCNCc4ccccc4)c3C2=O)cc1OC` [Cpd 48, 4-(2-benzylamino-ethylamino)-2-(3,4-dimethoxy-benzyl)-isoindole-1,3-dione] yielded an inhibition at 10 µM of 41%, an inhibition at 50 µM of 78% and an IC50 [1] of 16 µM.

`COc1ccc(C(c2ccccc2)N2C(=O)c3cccc(N4CCN([C@H](C)c5ccccc5)CC4)c3C2=O)cc1OC` (stereo partly drawn) [Cpd 49, 2-[(3,4-dimethoxy-phenyl)-phenyl-methyl]-4-[4-(1R)-(1-phenyl-ethyl)-piperazin-1-yl]-isoindole-1,3-dione] showed an inhibition at 10 µM of 58%, an inhibition at 50 µM of 61% and an IC50 [1] of 16 µM.

`COc1ccc(CN2C(=O)c3cccc(C4=CC5CCC(C4)N5Cc4ccccc4)c3C2=O)cc1OC` (stereo not drawn) [Cpd 50, 4-(8-benzyl-8-aza-bicyclo[3.2.1]oct-2-en-3-yl)-2-(3,4-dimethoxy-benzyl)-isoindole-1,3-dione] was tested, and the inhibition at 10 µM was 42%, the inhibition at 50 µM was 77% and the IC50 [1] was 17 µM.

Work on `COc1ccc(CN2C(=O)c3cccc(N4C[C@@H](C)N(C(C)c5ccccc5)[C@@H](C)C4)c3C2=O)cc1OC` (stereo partly drawn) [Cpd 51, (3R,5S)-2-(3,4-dimethoxy-benzyl)-4-[3,5-dimethyl-4-(1-phenyl-ethyl)-piperazin-1-yl]-isoindole-1,3-dione] yielded an inhibition at 10 µM of 43%, an inhibition at 50 µM of 65% and an IC50 [1] of 18 µM.

With `COc1cc(CN2C(=O)c3cccc(N4CCN(C(C)C)CC4)c3C2=O)cc(OC)c1OC` [Cpd 52, 4-(4-isopropyl-piperazin-1-yl)-2-(3,4,5-trimethoxy-benzyl)-isoindole-1,3-dione] the inhibition at 10 µM was 17%, the inhibition at 50 µM was 71% and the IC50 [1] was 18 µM.

In the case of `COc1ccc(CN2C(=O)c3cccc(OCCN(C)Cc4ccccc4)c3C2=O)cc1OC` [Cpd 53, 4-[2-(benzyl-methyl-amino)-ethoxy]-2-(3,4-dimethoxy-benzyl)-isoindole-1,3-dione], the inhibition at 10 µM is reported as 22%, the inhibition at 50 µM is reported as 78% and the IC50 [1] is reported as 21 µM.

With `COc1ccc(CN2C(=O)c3cccc(OCCNCc4ccccc4)c3C2=O)cc1OC` [Cpd 54, 4-(2-benzylamino-ethoxy)-2-(3,4-dimethoxy-benzyl)-isoindole-1,3-dione] the inhibition at 10 µM was 15%, the inhibition at 50 µM was 81% and the IC50 [1] was 21 µM.

In the case of `Cc1c(CN2C(=O)c3cccc(N4CCN(Cc5ccccc5)CC4)c3C2=O)cnn1C` [Cpd 55, 4-(4-benzyl-piperazin-1-yl)-2-(1,5-dimethyl-1H-pyrazol-4-ylmethyl)-isoindole-1,3-dione], the inhibition at 10 µM is reported as 12%, the inhibition at 50 µM is reported as 75% and the IC50 [1] is reported as 24 µM.

In the case of `COc1ccc(CN2CCN(c3cccc4c3C(=O)N(Cc3ccc(OC)c(OC)c3)C4=O)CC2)cc1OC` [Cpd 56, 2-(3,4-dimethoxy-benzyl)-4-[4-(3,4-dimethoxy-benzyl)-piperazin-1-yl]-isoindole-1,3-dione], the inhibition at 10 µM is reported as 21%, the inhibition at 50 µM is reported as 68% and the IC50 [1] is reported as 25 µM.

`COc1ccc(CN2C(=O)c3cccc(N4CCN(Cc5ccc(Cl)cc5)CC4)c3C2=O)cc1OC` [Cpd 57, 4-[4-(4-chloro-benzyl)-piperazin-1-yl]-2-(3,4-dimethoxy-benzyl)-isoindole-1,3-dione] showed an inhibition at 10 µM of 19%, an inhibition at 50 µM of 58% and an IC50 [1] of 30 µM.

With `COc1cc(CN2C(=O)c3cccc(N4CCN(Cc5ccccc5)CC4)c3C2=O)ccn1` [Cpd 58, 4-(4-benzyl-piperazin-1-yl)-2-(2-methoxy-pyridin-4-ylmethyl)-isoindole-1,3-dione] the inhibition at 10 µM was 25%, the inhibition at 50 µM was 60% and the IC50 [1] was 32 µM.

For `O=C1c2cccc(N3CC4CCC(C3)N4Cc3ccccc3)c2C(=O)N1Cc1ccccn1` [Cpd 59, 4-(8-benzyl-3,8-diaza-bicyclo[3.2.1]oct-3-yl)-2-pyridin-2-ylmethyl-isoindole-1,3-dione], the inhibition at 10 µM was 11%, the inhibition at 50 µM was 56% and the IC50 [1] was 34 µM.

`COc1cc(CN2C(=O)c3cccc(N4CCN(CC(C)C)CC4)c3C2=O)cc(OC)c1OC` [Cpd 60, 4-(4-isobutyl-piperazin-1-yl)-2-(3,4,5-trimethoxy-benzyl)-isoindole-1,3-dione] was tested, and the inhibition at 10 µM was 8%, the inhibition at 50 µM was 52% and the IC50 [1] was 42 µM.

`COc1ccc(N2C(=O)c3cccc(N4CC5CCC(C4)N5Cc4ccccc4)c3C2=O)cc1OC` [Cpd 61, 4-(8-benzyl-3,8-diaza-bicyclo[3.2.1]oct-3-yl)-2-(3,4-dimethoxy-phenyl)-isoindole-1,3-dione] was tested, and the inhibition at 10 µM was 31%, the inhibition at 50 µM was 49% and the IC50 [1] was 48 µM.

`COc1ccc(CN2C(=O)c3c(C=CS(C)(=O)=O)ccc(N4CCN([C@H](C)c5ccccc5)CC4)c3C2=O)cc1OC` [Cpd 62, 2-(3,4-dimethoxy-benzyl)-4-(2-methanesulfonyl-vinyl)-7-[4-(1R)-(1-phenyl-ethyl)-piperazin-1-yl]-isoindole-1,3-dione] was tested, and the inhibition at 10 µM was 99%, the inhibition at 50 µM was 102% and the IC50 [1] was 0.72 µM.

For `COc1ccc(C(CCCNS(=O)(=O)c2ccc(Cl)s2)N2C(=O)c3cccc(N4CCN([C@H](C)c5ccccc5)CC4)c3C2=O)cc1OC` (stereo partly drawn) [Cpd 71, 5-chloro-thiophene-2-sulfonic acid (4-(3,4-dimethoxy-phenyl)-4-{1,3-dioxo-4-[4-(1R)-(1-phenyl-ethyl)-piperazin-1-yl]-1,3-dihydro-isoindol-2-yl}-butyl)-amide], the inhibition at 10 µM was 58%, the inhibition at 50 µM was 37% and the IC50 [1] was 1.7 µM.

`COc1ccc(CN2C(=O)c3cccc(N4CCN(CC(C)C)CC4)c3C2=O)cc1OC` [Cpd 82, 2-(3,4-dimethoxy-benzyl)-4-(4-isobutyl-piperazin-1-yl)-isoindole-1,3-dione] was tested, and the IC50 [2] was 4.7 µM.

`COc1ccc(CN2C(=O)c3cccc(N4CCN(Cc5ccccn5)CC4)c3C2=O)cc1OC` [Cpd 84, 2-(3,4-dimethoxy-benzyl)-4-(4-pyridin-2-ylmethyl-piperazin-1-yl)-isoindole-1,3-dione] gave an IC50 [2] of 2.8 µM.

`COc1ccc(C(CCCNS(=O)(=O)c2cc(S(=O)(=O)c3ccccc3)cs2)N2C(=O)c3cccc(N4CCN([C@H](C)c5ccccc5)CC4)c3C2=O)cc1OC` (stereo partly drawn) [Cpd 92, 4-benzenesulfonyl-thiophene-2-sulfonic acid (4-(3,4-dimethoxy-phenyl)-4-{1,3-dioxo-4-[4-(1R)-(1-phenyl-ethyl)-piperazin-1-yl]-1,3-dihydro-isoindol-2-yl}-butyl)-amide] was tested, and the IC50 [2] was 0.92 µM.
